Laboratory results reported in ChEMBL document CHEMBL1137284, “Farnesoid X-activated receptor antagonists from a marine sponge Spongia sp” (Bioorg Med Chem Lett, 2006).

Legend:
Bile acid receptor = molecular target: T1, Bile acid receptor (Homo sapiens, UniProt Q96RI1); test: Antagonist activity against FXR assessed as transactivation of luciferase reporter gene in CV1 cells; format: functional, cell-based, CV-1
T1 sequence (Q96RI1 whole entry): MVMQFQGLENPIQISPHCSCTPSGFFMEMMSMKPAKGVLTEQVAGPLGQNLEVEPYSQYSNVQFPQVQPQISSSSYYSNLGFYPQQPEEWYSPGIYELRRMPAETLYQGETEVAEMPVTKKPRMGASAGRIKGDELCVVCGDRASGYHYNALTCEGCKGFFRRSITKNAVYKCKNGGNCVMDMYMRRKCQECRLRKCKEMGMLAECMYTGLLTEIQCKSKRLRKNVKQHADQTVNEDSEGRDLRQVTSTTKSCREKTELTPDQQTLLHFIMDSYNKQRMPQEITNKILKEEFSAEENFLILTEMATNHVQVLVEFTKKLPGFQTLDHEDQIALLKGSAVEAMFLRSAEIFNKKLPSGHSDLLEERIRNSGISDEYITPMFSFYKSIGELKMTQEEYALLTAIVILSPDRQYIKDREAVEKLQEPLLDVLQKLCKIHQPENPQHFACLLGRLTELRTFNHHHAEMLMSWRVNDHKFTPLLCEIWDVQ

[1] = Cytotoxicity against CV1 cells transfected with human FXR by MTT method; format: cell-based; settings: CV-1

CC(=O)OC[C@@]12CCC3C(C)(C)CCC[C@]3(C)C1C[C@@H](O)[C@@]1(C)C2CC=C2CO[C@@H](O)[C@@H]21 (stereo not given in full)
IC50 (Bile acid receptor): 25.3 µM
IC50 [1]: 29.2 µM

CO[C@@H]1OCC2=CCC3[C@]4(C)CCC5C(C)(C)CCC[C@]5(C)C4C[C@@H](O)[C@]3(C)[C@H]21 (stereo not given in full)
IC50 (Bile acid receptor): 24.8 µM
IC50 [1]: 86.9 µM

CC1(C)CCC[C@@]2(C)C1CC[C@]1(CO)C2C[C@@H](O)[C@@]2(C)C1CC=C1CO[C@@H](O)[C@@H]12 (stereo not given in full)
IC50 (Bile acid receptor): 64.5 µM
IC50 [1]: > 100 µM

CC(=O)OC[C@@]12CCC3C(C)(C)CCC[C@]3(C)C1C[C@@H](OC(C)=O)[C@@]1(C)C2CC=C2CO[C@@H](O)[C@@H]21 (stereo not given in full)
IC50 (Bile acid receptor): 8.1 µM
IC50 [1]: 32.7 µM

CC(=O)O[C@@H]1CC2[C@@]3(C)CCCC(C)(C)C3CC[C@@]2(C)C2CC=C3CO[C@@H](O)[C@@H]3[C@]21C (stereo not given in full)
IC50 (Bile acid receptor): 81.1 µM
IC50 [1]: 98.5 µM
